According to patent publication US10660877B2 (BRISTOL-MYERS SQUIBB COMPANY, priority 2016, dated 2020):
Read-outs that look alike come from different tables or passages of the source.

Experiments:
human TLR8 = human TLR8 (Homo sapiens (Human), UniProt Q9NR97); assay: TLR8 inhibition reporter assay (HEK-Blue cells, SEAP reporter, R848 stimulation);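 note: compounds tested from 0.05 nM to 50 µM, 22 h at 37 °C, SEAP measured with HEK-Blue Detection, inhibition relative to agonist plus DMSO versus a known inhibitor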
Sequence of human TLR8 (Q9NR97 27-1041): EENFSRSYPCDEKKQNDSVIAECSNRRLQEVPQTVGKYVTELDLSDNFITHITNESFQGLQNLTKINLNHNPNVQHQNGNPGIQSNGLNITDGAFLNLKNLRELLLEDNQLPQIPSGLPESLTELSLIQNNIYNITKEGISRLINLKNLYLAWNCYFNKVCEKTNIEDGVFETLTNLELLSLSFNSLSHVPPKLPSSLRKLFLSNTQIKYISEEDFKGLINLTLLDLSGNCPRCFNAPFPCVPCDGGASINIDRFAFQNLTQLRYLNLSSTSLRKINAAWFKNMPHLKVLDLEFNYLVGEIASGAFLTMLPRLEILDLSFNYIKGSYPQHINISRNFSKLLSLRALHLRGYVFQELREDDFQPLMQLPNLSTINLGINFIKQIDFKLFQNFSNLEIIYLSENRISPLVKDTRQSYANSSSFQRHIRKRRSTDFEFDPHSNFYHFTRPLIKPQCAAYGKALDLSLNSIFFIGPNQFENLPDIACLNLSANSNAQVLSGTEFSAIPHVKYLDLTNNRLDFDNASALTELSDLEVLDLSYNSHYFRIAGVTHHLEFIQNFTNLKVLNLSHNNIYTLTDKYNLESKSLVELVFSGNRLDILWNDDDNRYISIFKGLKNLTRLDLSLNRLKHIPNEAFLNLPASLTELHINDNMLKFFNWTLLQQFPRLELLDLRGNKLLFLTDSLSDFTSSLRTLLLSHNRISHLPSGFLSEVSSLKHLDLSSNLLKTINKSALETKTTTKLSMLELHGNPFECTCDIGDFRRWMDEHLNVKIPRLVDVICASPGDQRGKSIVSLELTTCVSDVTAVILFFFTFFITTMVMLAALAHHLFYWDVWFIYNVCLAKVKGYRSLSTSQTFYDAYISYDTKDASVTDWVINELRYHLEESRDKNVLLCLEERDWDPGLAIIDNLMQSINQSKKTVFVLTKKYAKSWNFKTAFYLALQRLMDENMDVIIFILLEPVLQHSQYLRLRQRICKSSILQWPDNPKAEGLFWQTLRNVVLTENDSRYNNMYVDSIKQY

human TLR7 = human TLR7 (Homo sapiens (Human), UniProt Q9NYK1); assay: TLR7 inhibition reporter assay (HEK-Blue cells, SEAP reporter, gardiquimod stimulation); format: cell-based
Sequence of human TLR7 (Q9NYK1 27-1049): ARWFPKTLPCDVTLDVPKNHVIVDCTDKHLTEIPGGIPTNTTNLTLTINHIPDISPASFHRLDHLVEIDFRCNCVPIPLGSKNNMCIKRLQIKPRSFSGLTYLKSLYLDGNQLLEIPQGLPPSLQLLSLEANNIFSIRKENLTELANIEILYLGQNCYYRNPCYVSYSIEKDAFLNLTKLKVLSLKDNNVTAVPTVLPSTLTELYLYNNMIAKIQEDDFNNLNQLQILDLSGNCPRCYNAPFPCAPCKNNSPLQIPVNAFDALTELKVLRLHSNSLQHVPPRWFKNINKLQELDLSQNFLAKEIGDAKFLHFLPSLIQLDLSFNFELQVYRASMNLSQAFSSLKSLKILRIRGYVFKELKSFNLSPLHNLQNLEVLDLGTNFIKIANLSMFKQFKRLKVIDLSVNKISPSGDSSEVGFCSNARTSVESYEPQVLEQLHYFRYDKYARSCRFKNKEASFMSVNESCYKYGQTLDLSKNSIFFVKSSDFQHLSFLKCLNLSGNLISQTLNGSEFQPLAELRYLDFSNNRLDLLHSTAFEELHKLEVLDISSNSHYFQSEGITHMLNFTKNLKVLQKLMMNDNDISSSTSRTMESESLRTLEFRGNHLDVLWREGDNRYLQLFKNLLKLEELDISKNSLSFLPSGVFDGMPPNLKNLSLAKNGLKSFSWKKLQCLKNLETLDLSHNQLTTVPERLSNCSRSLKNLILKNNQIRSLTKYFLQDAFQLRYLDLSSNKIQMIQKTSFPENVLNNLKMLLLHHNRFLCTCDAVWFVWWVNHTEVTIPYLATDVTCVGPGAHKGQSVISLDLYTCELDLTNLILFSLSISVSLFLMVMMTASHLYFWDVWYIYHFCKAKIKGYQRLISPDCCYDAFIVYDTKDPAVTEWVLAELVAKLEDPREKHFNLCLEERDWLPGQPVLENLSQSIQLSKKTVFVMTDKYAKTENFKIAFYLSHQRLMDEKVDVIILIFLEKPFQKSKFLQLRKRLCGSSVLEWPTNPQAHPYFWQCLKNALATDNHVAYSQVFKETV

human TLR9 = human TLR9 (Homo sapiens (Human), UniProt Q9NR96); assay: TLR9 inhibition reporter assay (HEK-Blue cells, SEAP reporter, ODN2006 stimulation);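 note: compounds tested over 0.05 nM to 50 µM, 22 h incubation, inhibition taken as SEAP signal drop from agonist plus DMSO wells toward a known inhibitor control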
Sequence of human TLR9 (Q9NR96 26-1032): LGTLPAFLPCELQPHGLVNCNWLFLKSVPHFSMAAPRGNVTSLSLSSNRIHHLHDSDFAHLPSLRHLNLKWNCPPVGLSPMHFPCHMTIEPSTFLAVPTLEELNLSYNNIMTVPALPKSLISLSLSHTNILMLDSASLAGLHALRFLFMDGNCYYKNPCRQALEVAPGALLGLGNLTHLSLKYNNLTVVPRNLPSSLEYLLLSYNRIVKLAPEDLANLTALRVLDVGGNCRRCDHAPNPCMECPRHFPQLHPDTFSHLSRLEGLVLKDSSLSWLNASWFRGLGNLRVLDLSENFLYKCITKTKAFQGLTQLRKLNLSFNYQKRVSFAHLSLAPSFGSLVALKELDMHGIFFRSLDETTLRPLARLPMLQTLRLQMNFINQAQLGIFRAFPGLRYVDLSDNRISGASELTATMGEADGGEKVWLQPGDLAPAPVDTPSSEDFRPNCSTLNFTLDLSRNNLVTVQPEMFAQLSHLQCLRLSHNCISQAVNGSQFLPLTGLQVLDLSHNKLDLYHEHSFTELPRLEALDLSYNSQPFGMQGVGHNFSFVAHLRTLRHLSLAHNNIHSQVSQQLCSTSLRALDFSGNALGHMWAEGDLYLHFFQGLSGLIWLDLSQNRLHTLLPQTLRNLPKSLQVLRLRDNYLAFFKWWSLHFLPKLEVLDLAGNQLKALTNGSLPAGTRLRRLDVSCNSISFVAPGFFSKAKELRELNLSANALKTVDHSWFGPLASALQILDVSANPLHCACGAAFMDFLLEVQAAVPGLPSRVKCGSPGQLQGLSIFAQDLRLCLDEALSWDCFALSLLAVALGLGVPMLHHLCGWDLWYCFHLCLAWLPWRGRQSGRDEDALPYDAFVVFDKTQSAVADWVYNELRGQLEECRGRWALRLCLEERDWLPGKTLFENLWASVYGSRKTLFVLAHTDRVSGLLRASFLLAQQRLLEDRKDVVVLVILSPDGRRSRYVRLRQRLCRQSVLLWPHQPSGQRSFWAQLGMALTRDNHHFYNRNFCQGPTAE

[1] = read-out: TLR8 IC50, HEK-Blue cells overexpressing human TLR8, R848 15.9 μM
[2] = HEK-Blue cells overexpressing human TLR7, gardiquimod 7.5 μM
[3] = read-out: TLR9 IC50, HEK-Blue cells overexpressing human TLR9, ODN2006 5 nM
[4] = read-out: TLR8 IC50, HEK-Blue cells, R848 15.9 μM
[5] = HEK-Blue cells, gardiquimod 7.5 μM
[6] = read-out: TLR9 IC50, HEK-Blue cells, ODN2006 5 nM
[7] = TLR8 IC50, HEK-Blue cells overexpressing human TLR8, R848 15.9 μM
[8] = TLR9 IC50, HEK-Blue cells overexpressing human TLR9, ODN2006 5 nM

| SMILES | IC50 (human TLR8; [1]) | IC50 (human TLR7; [2]) | IC50 (human TLR9; [3]) | IC50 (human TLR8; [4]) | IC50 (human TLR7; [5]) | IC50 (human TLR9; [6]) | IC50 (human TLR8; [7]) | IC50 (human TLR9; [8]) |
| --- | --- | --- | --- | --- | --- | --- | --- | --- |
| COC[C@@H]1CCCN1C(=O)CN1CCC(c2ccc3[nH]c(-c4cc(C)nc(C)c4)c(C(C)C)c3c2)CC1 [Example 263, (S)-2-(4-(2-(2,6-dimethylpyridin-4-yl)-3-isopropyl-1H-indol-5-yl)piperidin-1-yl)-1-(2-(methoxymethyl)pyrrolidin-1-yl)ethan-1-one] | 13.6 nM | 3.7 nM | 279 nM |  |  |  |  |  |
| CC(C)c1c(-c2cc(C3CC3)ncc2F)[nH]c2ccc(C3CCNCC3)cc12 [Example 481, 2-(2-cyclopropyl-5-fluoropyridin-4-yl)-3-isopropyl-5-(piperidin-4-yl)-1H-indole] | 95.4 nM | 16 nM | 677 nM |  |  |  |  |  |
| Cc1cc(-c2[nH]c3ccc(C4CCN(C(=O)[C@@H]5C[C@H](F)CN5)CC4)cc3c2C(C)C)cc(C)n1 [Example 196, (4-(2-(2,6-dimethylpyridin-4-yl)-3-isopropyl-1H-indol-5-yl)piperidin-1-yl)((2S,4S)-4-fluoropyrrolidin-2-yl)methanone] | 16.2 nM | 1.2 nM | 195 nM |  |  |  |  |  |
| Cc1cc(-c2[nH]c3ccc(C4CCN(CC(=O)NCC5CCCO5)CC4)cc3c2C(C)C)cc(C)n1 (stereo not drawn) [Example 266, 2-(4-(2-(2,6-dimethylpyridin-4-yl)-3-isopropyl-1H-indol-5-yl)piperidin-1-yl)-N-((tetrahydrofuran-2-yl)methyl)acetamide] | 10.8 nM | 3.2 nM | 522 nM |  |  |  |  |  |
| Cc1c(-c2ccncc2)[nH]c2ccc(C3CCN(C4CCN(C(C)C)CC4)CC3)cc12 [Example 843, 5-(1′-isopropyl-[1,4′-bipiperidin]-4-yl)-3-methyl-2-(pyridin-4-yl)-1H-indole] |  |  |  | 28.4 nM | 292 nM | 38 nM |  |  |
| COc1cc(-c2[nH]c3ccc(C4CCN(C5CCN(CC6CC6)CC5)CC4)cc3c2C(C)C)ccn1 [Example 796, 5-(1′-(cyclopropylmethyl)-[1,4′-bipiperidin]-4-yl)-3-isopropyl-2-(2-methoxypyridin-4-yl)-1H-indole] | 13.9 nM | 154 nM | 563 nM |  |  |  |  |  |
| Cc1cc(-c2[nH]c3ccc(C4CCNCC4)cc3c2C(C)C)ccn1 [Example 5, 3-isopropyl-2-(2-methylpyridin-4-yl)-5-(piperidin-4-yl)-1H-indole] | 3.9 nM | 6.1 nM | 946 nM |  |  |  |  |  |
| Cc1cc(-c2[nH]c3ccc(C4CCN(CC(=O)N5CCCC(F)C5)CC4)cc3c2C(C)C)cc(C)n1 (stereo not drawn) [Example 258, 2-(4-(2-(2,6-dimethylpyridin-4-yl)-3-isopropyl-1H-indol-5-yl)piperidin-1-yl)-1-(3-fluoropiperidin-1-yl)ethan-1-one] | 15.6 nM | 7.6 nM | 903 nM |  |  |  |  |  |
| CC(=O)Nc1ccc(S(=O)(=O)N2CCC(c3ccc4[nH]c(-c5ccnc(C)c5)c(C(C)C)c4c3)CC2)cc1 [Example 552, N-(4-((4-(3-isopropyl-2-(2-methylpyridin-4-yl)-1H-indol-5-yl)piperidin-1-yl)sulfonyl)phenyl)acetamide] | 111 nM | 130 nM | > 50000 nM |  |  |  |  |  |
| CCc1c(-c2ccncc2)[nH]c2ccc(C3CCN(C4CCN(C(C)C)CC4)CC3)cc12 [Example 804, 3-ethyl-5-(1′-isopropyl-[1,4′-bipiperidin]-4-yl)-2-(pyridin-4-yl)-1H-indole] | 11.2 nM | 212 nM | 82 nM |  |  |  |  |  |
| CCOCCNC(=O)CN1CCC(c2ccc3[nH]c(-c4cc(C)nc(C)c4)c(C(C)C)c3c2)CC1 [Example 240, 2-(4-(2-(2,6-dimethylpyridin-4-yl)-3-isopropyl-1H-indol-5-yl)piperidin-1-yl)-N-(2-ethoxyethyl)acetamide] |  | 8.3 nM |  |  |  |  | 7.9 nM | 1090 nM |
| Cc1cc(-c2[nH]c3ccc(C4CCN(C(=O)C5CC(=O)N(C)C5)CC4)cc3c2C(C)C)cc(C)n1 (stereo not drawn) [Example 100, 4-(4-(2-(2,6-dimethylpyridin-4-yl)-3-isopropyl-1H-indol-5-yl)piperidine-1-carbonyl)-1-methylpyrrolidin-2-one] |  | 8 nM |  |  |  |  | 63.8 nM | 22400 nM |
| C=CC(C)(O)CN1CCC(c2ccc3[nH]c(-c4cc(C)nc(C)c4)c(C(C)C)c3c2)CC1 (stereo not drawn) [Example 853, 1-(4-(2-(2,6-dimethylpyridin-4-yl)-3-isopropyl-1H-indol-5-yl)piperidin-1-yl)-2-methylbut-3-en-2-ol] |  |  |  | 1 nM | 2.3 nM | 293 nM |  |  |
| Cc1cc(-c2[nH]c3ccc(C4CCN(CC(F)(F)F)CC4)cc3c2C(C)C)ccn1 [Example 658, 3-isopropyl-2-(2-methylpyridin-4-yl)-5-(1-(2,2,2-trifluoroethyl)piperidin-4-yl)-1H-indole] | 645 nM | 434 nM | 7290 nM |  |  |  |  |  |
| Cc1cc(-c2[nH]c3ccc(C4CCN(S(=O)(=O)c5ccccc5)CC4)cc3c2C(C)C)ccn1 [Example 547, 3-isopropyl-2-(2-methylpyridin-4-yl)-5-(1-(phenylsulfonyl)piperidin-4-yl)-1H-indole] | 1040 nM | 333 nM | > 50000 nM |  |  |  |  |  |
| CCC(O)CN1CCC(c2ccc3[nH]c(-c4ccnc(C)c4)c(C(C)C)c3c2)CC1 (stereo not drawn) [Example 664, 1-(4-(3-isopropyl-2-(2-methylpyridin-4-yl)-1H-indol-5-yl)piperidin-1-yl)butan-2-ol] | 4.5 nM | 10.2 nM | 1570 nM |  |  |  |  |  |
| COc1ncc(CN2CCC(c3ccc4[nH]c(-c5cc(C)nc(C)c5)c(C(C)C)c4c3)CC2)cn1 [Example 430, 2-(2,6-dimethylpyridin-4-yl)-3-isopropyl-5-(1-((2-methoxypyrimidin-5-yl)methyl)piperidin-4-yl)-1H-indole] | 5.9 nM | 10.1 nM | 369 nM |  |  |  |  |  |
| Cc1cc(-c2[nH]c3ccc(C4CCN(CC(=O)N(CCO)C(C)C)CC4)cc3c2C(C)C)cc(C)n1 [Example 299, 2-(4-(2-(2,6-dimethylpyridin-4-yl)-3-isopropyl-1H-indol-5-yl)piperidin-1-yl)-N-(2-hydroxyethyl)-N-isopropylacetamide] | 112 nM | 24 nM | 2630 nM |  |  |  |  |  |
| Cc1cc(-c2[nH]c3ccc(C4CCN(C(=O)CN5C(=O)CN(C)C5=O)CC4)cc3c2C(C)C)cc(C)n1 [Example 160, 3-(2-(4-(2-(2,6-dimethylpyridin-4-yl)-3-isopropyl-1H-indol-5-yl)piperidin-1-yl)-2-oxoethyl)-1-methylimidazolidine-2,4-dione] | 35.8 nM | 7.1 nM | > 50000 nM |  |  |  |  |  |
| CC(C)c1c(-c2ccnc(C(=O)NCC(F)(F)F)c2)[nH]c2ccc(C3CCNCC3)cc12 [Example 476, 4-(3-isopropyl-5-(piperidin-4-yl)-1H-indol-2-yl)-N-(2,2,2-trifluoroethyl) picolinamide] | 1040 nM | 6070 nM | 3260 nM |  |  |  |  |  |
| Cc1cc(-c2[nH]c3ccc(C4CCN(CC5COC5)CC4)cc3c2C(C)C)c(F)cn1 [Example 650, 2-(5-fluoro-2-methylpyridin-4-yl)-3-isopropyl-5-(1-(oxetan-3-ylmethyl)piperidin-4-yl)-1H-indole] | 1.8 nM | 4.7 nM | 3400 nM |  |  |  |  |  |
